Reference: patent US20210254056A1, “IDENTIFICATION AND TARGETED MODULATION OF GENE SIGNALING NETWORKS” (CAMP4 THERAPEUTICS CORPORATION, priority 2017, published 2021)

Tested on: hepatocytes
Experiment: RNA-seq of hepatocytes treated with Phase III failure compounds
Conditions: hepatocytes
Method: RNA-seq was performed to determine the effects of the compounds on hepatocytes.
Significance was determined by the criteria of FPKM≥0.5, a log 2(fold-change)≥1, and a […].

Q: `CCC(CC)[C@H](NC(C)=O)[C@@H]1[C@H](O)[C@@H](C(=O)O)C[C@H]1NC(=N)N.O.O.O` [peramivir (trihydrate), peramivir] was tested. Which “RNA-seq results: BCKDK expression” value (gene BCKDK) did it give?
A: −0.14

Q: What about the “RNA-seq results: BCO1 expression” value (gene BCO1) of the same compound?
A: −0.07

Q: And the “RNA-seq results: BCR expression” value (gene BCR)?
A: −0.02

Q: And the “RNA-seq results: BLNK expression” value (gene BLNK)?
A: −0.02

Q: What about the “RNA-seq results: BLOC1S3 expression” value (gene BLOC1S3) of the same compound?
A: 0.01

Q: What about the “RNA-seq results: BMPR1A expression” value (gene BMPR1A) of the same compound?
A: −0.14

Q: And the “RNA-seq results: BRAF expression” value (gene BRAF)?
A: −0.13

Q: What about the “RNA-seq results: BSCL2 expression” value (gene BSCL2) of the same compound?
A: −1.57

Q: What about the “RNA-seq results: BTD expression” value (gene BTD) of the same compound?
A: −0.14

Q: And the “RNA-seq results: C4A expression” value (gene C4A)?
A: 0.79

Q: And the “RNA-seq results: C9 expression” value (gene C9)?
A: −0.57

Q: And the “RNA-seq results: C10orf10 expression” value (gene C10orf10)?
A: 0.08

Q: And the “RNA-seq results: C10orf11 expression” value (gene C10orf11)?
A: −0.18

Q: What about the “RNA-seq results: C15orf41 expression” value (gene C15orf41) of the same compound?
A: −0.25

Q: What about the “RNA-seq results: CA2 expression” value (gene CA2) of the same compound?
A: −0.12

Q: And the “RNA-seq results: CA5A expression” value (gene CA5A)?
A: 0.03

Q: And the “RNA-seq results: CA12 expression” value (gene CA12)?
A: −0.29

Q: And the “RNA-seq results: CAV1 expression” value (gene CAV1)?
A: −0.36

Q: And the “RNA-seq results: CCND1 expression” value (gene CCND1)?
A: −0.01

Q: What about the “RNA-seq results: CD46 expression” value (gene CD46) of the same compound?
A: −0.29

Q: What about the “RNA-seq results: CD81 expression” value (gene CD81) of the same compound?
A: −0.08

Q: What about the “RNA-seq results: CD320 expression” value (gene CD320) of the same compound?
A: −0.01

Q: What about the “RNA-seq results: CDAN1 expression” value (gene CDAN1) of the same compound?
A: 0.23

Q: What about the “RNA-seq results: CDH1 expression” value (gene CDH1) of the same compound?
A: 0.05

Q: And the “RNA-seq results: CEP19 expression” value (gene CEP19)?
A: −0.09

Q: What about the “RNA-seq results: CEP83 expression” value (gene CEP83) of the same compound?
A: −0.20

Q: What about the “RNA-seq results: CEP164 expression” value (gene CEP164) of the same compound?
A: 0.39

Q: What about the “RNA-seq results: CEP290 expression” value (gene CEP290) of the same compound?
A: −0.30

Q: What about the “RNA-seq results: CFB expression” value (gene CFB) of the same compound?
A: −0.13

Q: And the “RNA-seq results: CFHR2 expression” value (gene CFHR2)?
A: −0.38

Q: And the “RNA-seq results: CHRM3 expression” value (gene CHRM3)?
A: −0.12

Q: What about the “RNA-seq results: CIDEC expression” value (gene CIDEC) of the same compound?
A: −0.45

Q: What about the “RNA-seq results, CLDN1 expression” value (gene CLDN1) of the same compound?
A: −0.36

Q: And the “RNA-seq results, COG1 expression” value (gene COG1)?
A: −0.10

Q: And the “RNA-seq results, COG5 expression” value (gene COG5)?
A: −0.36

Q: What about the “RNA-seq results: COG5 expression” value (gene COG5) of the same compound?
A: −0.22

Q: What about the “RNA-seq results, COG6 expression” value (gene COG6) of the same compound?
A: −0.54

Q: And the “RNA-seq results: COG6 expression” value (gene COG6)?
A: −0.08

Q: And the “RNA-seq results, COL1A1 expression” value (gene COL1A1)?
A: 0.33

Q: And the “RNA-seq results: COL1A1 expression” value (gene COL1A1)?
A: 0.09

Q: What about the “RNA-seq results, COX6A1 expression” value (gene COX6A1) of the same compound?
A: 0.39

Q: And the “RNA-seq results: COX6A1 expression” value (gene COX6A1)?
A: −0.01

Q: And the “RNA-seq results, CP expression” value (gene CP)?
A: −0.09

Q: What about the “RNA-seq results: CP expression” value (gene CP) of the same compound?
A: −0.27

Q: And the “RNA-seq results, CPS1 expression” value (gene CPS1)?
A: 0.01

Q: What about the “RNA-seq results: CPS1 expression” value (gene CPS1) of the same compound?
A: −0.63

Q: And the “RNA-seq results, CPT1A expression” value (gene CPT1A)?
A: −0.10

Q: And the “RNA-seq results: CPT1A expression” value (gene CPT1A)?
A: 0.13

Q: What about the “RNA-seq results, CPT2 expression” value (gene CPT2) of the same compound?
A: −0.19

Q: What about the “RNA-seq results: CPT2 expression” value (gene CPT2) of the same compound?
A: 0.05

Q: And the “RNA-seq results, CROT expression” value (gene CROT)?
A: −0.25

Q: And the “RNA-seq results: CROT expression” value (gene CROT)?
A: −0.4

Q: And the “RNA-seq results, CSPP1 expression” value (gene CSPP1)?
A: −0.06

Q: What about the “RNA-seq results: CSPP1 expression” value (gene CSPP1) of the same compound?
A: −0.05

Q: What about the “RNA-seq results, CTC1 expression” value (gene CTC1) of the same compound?
A: 0.10

Q: And the “RNA-seq results: CTC1 expression” value (gene CTC1)?
A: 0.2

Q: And the “RNA-seq results, CTDSP2 expression” value (gene CTDSP2)?
A: 0.00

Q: And the “RNA-seq results: CTDSP2 expression” value (gene CTDSP2)?
A: −0.07

Q: And the “RNA-seq results, CTH expression” value (gene CTH)?
A: 0.06

Q: What about the “RNA-seq results: CTH expression” value (gene CTH) of the same compound?
A: 0.6

Q: What about the “RNA-seq results, CTNS expression” value (gene CTNS) of the same compound?
A: −0.25

Q: And the “RNA-seq results: CTNS expression” value (gene CTNS)?
A: 0.65

Q: What about the “RNA-seq results, CTSF expression” value (gene CTSF) of the same compound?
A: 0.21

Q: And the “RNA-seq results: CTSF expression” value (gene CTSF)?
A: 0.3

Q: What about the “RNA-seq results, CTSK expression” value (gene CTSK) of the same compound?
A: 0.28

Q: And the “RNA-seq results: CTSK expression” value (gene CTSK)?
A: 0.04

Q: And the “RNA-seq results, CYB5A expression” value (gene CYB5A)?
A: 0.01

Q: And the “RNA-seq results: CYB5A expression” value (gene CYB5A)?
A: 0.34

Q: And the “RNA-seq results, CYB5R3 expression” value (gene CYB5R3)?
A: 0.00

Q: And the “RNA-seq results: CYB5R3 expression” value (gene CYB5R3)?
A: 0.13

Q: What about the “RNA-seq results, CYP2B6 expression” value (gene CYP2B6) of the same compound?
A: 0.07

Q: And the “RNA-seq results: CYP2B6 expression” value (gene CYP2B6)?
A: 0.12

Q: What about the “RNA-seq results, CYP2C19 expression” value (gene CYP2C19) of the same compound?
A: 0.25

Q: And the “RNA-seq results: CYP2C19 expression” value (gene CYP2C19)?
A: −0.31

Q: What about the “RNA-seq results, CYP2D6 expression” value (gene CYP2D6) of the same compound?
A: 0.24

Q: What about the “RNA-seq results: CYP2D6 expression” value (gene CYP2D6) of the same compound?
A: 0.22

Q: What about the “RNA-seq results, CYP3A4 expression” value (gene CYP3A4) of the same compound?
A: −0.53

Q: And the “RNA-seq results: CYP3A4 expression” value (gene CYP3A4)?
A: 0.77

Q: And the “RNA-seq results, CYP7B1 expression” value (gene CYP7B1)?
A: −0.16

Q: And the “RNA-seq results: CYP7B1 expression” value (gene CYP7B1)?
A: −0.34

Q: And the “RNA-seq results, CYP27A1 expression” value (gene CYP27A1)?
A: −0.21

Q: And the “RNA-seq results: CYP27A1 expression” value (gene CYP27A1)?
A: 0.28

Q: And the “RNA-seq results, CYP39A1 expression” value (gene CYP39A1)?
A: −0.20

Q: What about the “RNA-seq results: CYP39A1 expression” value (gene CYP39A1) of the same compound?
A: −0.11

Q: What about the “RNA-seq results, DAO expression” value (gene DAO) of the same compound?
A: 0.00

Q: And the “RNA-seq results: DAO expression” value (gene DAO)?
A: 0.13

Q: And the “RNA-seq results, DBT expression” value (gene DBT)?
A: −0.24

Q: What about the “RNA-seq results: DBT expression” value (gene DBT) of the same compound?
A: −0.32

Q: What about the “RNA-seq results, DCDC2 expression” value (gene DCDC2) of the same compound?
A: −0.04

Q: What about the “RNA-seq results: DCDC2 expression” value (gene DCDC2) of the same compound?
A: −0.6

Q: What about the “RNA-seq results, DCXR expression” value (gene DCXR) of the same compound?
A: −0.20

Q: What about the “RNA-seq results: DCXR expression” value (gene DCXR) of the same compound?
A: 0.16

Q: And the “RNA-seq results, DDC expression” value (gene DDC)?
A: −0.41

Q: What about the “RNA-seq results: DDC expression” value (gene DDC) of the same compound?
A: −0.25

Q: And the “RNA-seq results, DDO expression” value (gene DDO)?
A: 0.12

Q: And the “RNA-seq results: DDO expression” value (gene DDO)?
A: 0.12

Q: And the “RNA-seq results, DENR expression” value (gene DENR)?
A: −0.36

Q: What about the “RNA-seq results: DENR expression” value (gene DENR) of the same compound?
A: −0.13

Q: What about the “RNA-seq results, DHCR7 expression” value (gene DHCR7) of the same compound?
A: 0.04

Q: And the “RNA-seq results: DHCR7 expression” value (gene DHCR7)?
A: 0.32

Q: And the “RNA-seq results, DHCR24 expression” value (gene DHCR24)?
A: −0.16

Q: What about the “RNA-seq results: DHCR24 expression” value (gene DHCR24) of the same compound?
A: −0.14

Q: What about the “RNA-seq results, DHODH expression” value (gene DHODH) of the same compound?
A: 0.27

Q: And the “RNA-seq results: DHODH expression” value (gene DHODH)?
A: 0.22

Q: What about the “RNA-seq results, DIS3L2 expression” value (gene DIS3L2) of the same compound?
A: −0.14

Q: What about the “RNA-seq results: DIS3L2 expression” value (gene DIS3L2) of the same compound?
A: −0.14

Q: And the “RNA-seq results, DKC1 expression” value (gene DKC1)?
A: −0.11

Q: What about the “RNA-seq results: DKC1 expression” value (gene DKC1) of the same compound?
A: −0.05

Q: What about the “RNA-seq results, DLAT expression” value (gene DLAT) of the same compound?
A: −0.15

Q: And the “RNA-seq results: DLAT expression” value (gene DLAT)?
A: −0.21

Q: And the “RNA-seq results, DLD expression” value (gene DLD)?
A: −0.35

Q: And the “RNA-seq results: DLD expression” value (gene DLD)?
A: −0.3

Q: What about the “RNA-seq results, DMGDH expression” value (gene DMGDH) of the same compound?
A: −0.11

Q: What about the “RNA-seq results: DMGDH expression” value (gene DMGDH) of the same compound?
A: −0.15

Q: And the “RNA-seq results, DNAH5 expression” value (gene DNAH5)?
A: −0.05

Q: What about the “RNA-seq results: DNAH5 expression” value (gene DNAH5) of the same compound?
A: −0.1

Q: And the “RNA-seq results, DNM1L expression” value (gene DNM1L)?
A: −0.28

Q: And the “RNA-seq results: DNM1L expression” value (gene DNM1L)?
A: −0.12

Q: What about the “RNA-seq results, DOLK expression” value (gene DOLK) of the same compound?
A: 0.09
